Laboratory results taken from publication PMC5004175, “Abcb1 in Pigs: Molecular cloning, tissues distribution, functional analysis, and its effect on pharmacokinetics of enrofloxacin” (Scientific Reports, 2016).
Where two headings read alike, the source gives them in different places. Each block holds one compound with its values, some of them ahead of it.

Tests used:
[1] = system: porcine P-gp; test: Bidirectional transport assay of enrofloxacin in MDCK-pAbcb1 cell monolayers; type: in vitro ADME, pig
Procedure: (§1) Transport assays were carried out as described[45] with minor modifications. MDCK and MDCK-pAbcb1 with a density of 6.6 × 10^4 cells/insert were seeded on a polyethylene terephthalate membrane insert (Millicell cell culture inserts, 1.0 μm pore size, 6.5 mm diameter) in 24-well culture plates. […] Samples were stored at −20 °C. All experiments were conducted in triplicate.
(§2) In brief, plasma was thawed at room temperature and centrifuged at 2,000 × g for 5 min. […] The organic phase was evaporated to dryness under a nitrogen stream and residue was resuspended with mobile phase solution. The samples from the transport assays were directly evaporated to dryness under a nitrogen stream and 40 μL of the mobile phase solution was used to concentrate the samples for 5 times. Twenty microliters of the mixture were injected into the HPLC column (Kromasil C18 columns, […] particle size, 250 × 4.6 mm). The mobile phase composition was 0.1 M phosphoric acid (adjusted pH to 3.5 with triethylamine)/acetonitrile (84:16, v/v) and the flow rate of mobile phase was set to 0.85 mL/min. UV absorbance was measured at 278 nm.
(§3) Apparent permeability coefficients (Papp) were calculated using the following equation: Papp = (dQ/dt)/(A × C0), where A is the area of filter membrane, C0 is the initial concentration of the test drug, dQ is the amount of transported drug, and dt is time elapsed. The efflux ratio (ER) was calculated from (Papp B → A)/(Papp A → B)[59]. Where Papp B → A and Papp A → B are BL to AP and AP to BL apparent permeability coefficients, respectively. The net efflux ratio was calculated using the following equation: Net efflux ratio = efflux ratio in MDCK-pAbcb1/efflux ratio in MDCK.

[2] = Bidirectional transport assay of enrofloxacin in MDCK parental cell monolayers; type: in vitro ADME, canine; settings: dog, MDCK cells, enrofloxacin 12 μM alone
Procedure: as §1, §2, §3

[3] = Pharmacokinetics of oral enrofloxacin in healthy pigs with/without verapamil; settings: enrofloxacin 10 mg/kg po alone, mean ± SEM, n = 4
[4] = in vivo; settings: pig, plasma, po, 10 mg/kg
[5] = system: P-gp; test: P-gp inhibition (data not shown)
[6] = Tolerability of P-gp inhibitor pre-treatment in piglets; type: in vivo; settings: piglets treated with the P-gp inhibitor; dose not given
[7] = system: porcine P-gp; settings: 5 μM Rho123, during 2 h, p < 0.01

Net efflux ratio ([1]; enrofloxacin 12 μM alone, efflux ratio in MDCK-pAbcb1 / efflux ratio in MDCK): 2.48
Papp B→A at 120 min, 12 μM ([1]; pig, MDCK-MDR1, MDCK-pAbcb1 cells, enrofloxacin 12 μM alone, 120 min, mean ± SEM, n = 3): 19.9 ± 1.57 ×10⁻⁶ cm/s
efflux ratio at 120 min, 12 μM ([1]; pig, MDCK-pAbcb1, MDCK-pAbcb1 cells, enrofloxacin 12 μM alone, Papp B→A / Papp A→B, read-out: Efflux ratio): 2.58 ± 0.25
efflux ratio at 120 min, 12 μM ([1]; pig, MDCK-pAbcb1, enrofloxacin 12 μM alone, efflux ratio in MDCK-pAbcb1 / efflux ratio in MDCK, read-out: Net efflux ratio): > 2
Papp A→B at 120 min, 12 μM ([1]; pig, MDCK-pAbcb1 cells, enrofloxacin 12 μM alone, 120 min, mean ± SEM, n = 3): 7.78 ± 1.28 ×10⁻⁶ cm/s
Papp A→B at 120 min, 12 μM ([2]; 120 min, mean ± SEM, n = 3): 12.3 ± 0.59 ×10⁻⁶ cm/s
Papp B→A at 120 min, 12 μM ([2]; 120 min, mean ± SEM, n = 3): 12.9 ± 1.65 ×10⁻⁶ cm/s
efflux ratio at 120 min, 12 μM ([2]; Papp B→A / Papp A→B): 1.04 ± 0.11
AUC (area under the plasma concentration-time curve) [3]: 13.57 ± 0.96 (μg/mL)·h
CL/F (Clearance/F) ([3]; plasma): 0.47 ± 0.01 (mg/kg/h)/(μg/mL)
Ka (absorption rate constant) ([3]; plasma): 0.82 ± 0.11 h⁻¹
T1/2ka (absorption half-life) ([3]; plasma): 0.88 ± 0.20 h
T1/2ke (elimination half-life) ([3]; plasma): 2.50 ± 0.23 h
V/F (volume of distribution/F) ([3]; plasma): 1.69 ± 0.18 (mg/kg)/(μg/mL)
Cmax [4]: 3390 ± 120 ng/mL
Tmax [4]: 2.01 ± 0.09 h
k el [4]: 7.78e-05 s⁻¹
SMILES: CCN1CCN(c2cc3c(cc2F)c(=O)c(C(=O)O)cn3C2CC2)CC1 [ENRO, enrofloxacin]

SMILES: COc1ccc2cc3[n+](cc2c1OC)CCc1cc2c(cc1-3)OCO2 [Berberine]
Inhibition of P-gp [5]: can significantly inhibit P-gp

SMILES: C/C=C/C[C@@H](C)C(=O)[C@H]1C(=O)N[C@@H](C(C)C)C(=O)N(C)CC(=O)N(C)[C@@H](CC(C)C)C(=O)N[C@@H](C(C)C)C(=O)N(C)[C@@H](CC(C)C)C(=O)N[C@@H](C)C(=O)N[C@H](C)C(=O)N(C)[C@@H](CC(C)C)C(=O)N(C)[C@@H](CC(C)C)C(=O)N(C)[C@@H](C(C)C)C(=O)N1C [PSC-833]
Adverse effect in treated piglets [6]: some animals began vomiting

SMILES: COC(=O)c1ccccc1-c1c2ccc(=N)cc-2oc2cc(N)ccc12 [Rho123, rhodamine 123]
Accumulation of Rho123 in MDCK-pAbcb1 cells compared with MDCK cells [7]: accumulated less Rho123 than MDCK cells
